Reference: PMC7696938, “Cinnamides Target Leishmania amazonensis Arginase Selectively” (Molecules, 2020)
Where “and” joins values, the source holds several entries; their conditions need not be identical. Equal values may be shown once. Read-outs that look alike come from different tables or passages of the source.

Tests used:
[1] = biological target: bovine arginase (B-ARG); parameters: method as in PMID 27690022; conditions: cited from earlier work
[2] = system: Leishmania amazonensis recombinant arginase (L-ARG); assay: Arginase inhibition test, recombinant L-ARG (urea, Berthelot method); assay type: biochemical; parameters: Emax: dose or concentration left out as unconfirmed; conditions: for Selective Index: L-ARG over B-ARG (bovine IC50 vs L. amazonensis IC50)
Protocol: (§1) Recombinant L-ARG was expressed and purified as previously described. Briefly, Escherichia coli, containing arginase gene cloned in plasmid DNA, was grown in SOB (Super Optimal Broth) medium at 37 °C until it reached absorbance 0.6 at 600 nm. Then the recombinant L-ARG expression was induced with a final concentration of IPTG (isopropyl β-D-1-thiogalactopyranoside) 1 mM and MnSO4 10 mM for 3 h. The cells were harvested and lysed in 1 mL of buffer A (MOPS 100 mM, pH 7,2, NaCl 500 mM) containing PMSF (phenylmethanesulfonyl fluoride) 1 mM and 10% of CelLytic™ B. After lysis, the homogenate was centrifuged at 12,000× g for 10 min. Arginase in the supernatant was purified as previously described.
(§2) A stock solution (70 mM) was prepared in DMSO and stored at −20 °C for each compound just before the experiment. The inhibitory test was performed with 50 mM of L-arginine (pH 9.5), 50 mM CHES buffer (pH 9.5), and enzyme at 5 nM. The sample was incubated in a water bath at 37 °C for 15 min. Urea was quantified according to the Berthelot method, using commercial reagents. Briefly, the catalytic activity of the arginase reaction was stopped by transferring 2 μL of the reaction mixture into 150 μL of reagent I (20 mM phosphate buffer, pH 7, containing 60 mM Salicylate, 1 mM sodium nitroprusside, and >500 IU of urease). This mixture was incubated at 37 °C for 5 min. Next, 150 μL of reagent II (sodium hypochlorite 10 mM and NaOH 150 mM) was added, and the samples were incubated at 37 °C for 5 min. Measurement was taken at 600 nm using an Epoch 2 microplate reader (BioTek Instruments, Inc.). Two independent experiments were performed in triplicate until a coefficient of non-linear regression R^2 ≥ 0.95 was obtained. The sigmoidal model (log IC50) was used to determine IC50 and maximum effect (Emax) in GraphPad-Prism 6.01 software for Windows (San Diego, CA, USA).

[3] = biological target: T1, Leishmania amazonensis recombinant arginase (L-ARG) (Leishmania amazonensis, UniProt O96394); assay: as above; assay type: biochemical; parameters: Emax: dose or concentration left out as unconfirmed
Protocol: as §1, §2

[4] = biological target: human arginase (h-ARG); parameters: method as in PMID 27690022; conditions: cited from earlier work
[5] = biological target: T1, Leishmania amazonensis recombinant arginase (L-ARG); assay: Determination of Ki, Kis and mechanism of inhibition of L-ARG (Dixon and Cornish-Bowden plots); assay type: biochemical; conditions: for Mode of Inhibition: L-ARG; for Ki / Kis: L-arginine 25, 50, 100 mM, pH 9.5
Protocol: All reactions were performed in 50 mM CHES buffer, pH 9.5, containing variable concentrations of the substrate L-arginine (25, 50, and 100 mM) at pH 9.5. Inhibitors were tested at three different concentrations close to the IC50. All reactions were performed in triplicate in two independent experiments. Urea was quantified according to the Berthelot method using commercial reagents as previously described. The constant Ki was determined for competitive and mixed inhibitors, and Ki’ was determined uncompetitive and mixed using a Dixon and Cornish–Bowden plots. For non-competitive inhibitors, Ki and K’i values were the same, and y = 0 was determined to obtain that value.

[6] = system: L. amazonensis promastigotes; assay: Promastigote growth inhibition (MTT); assay type: cell-based; conditions: Leishmania amazonensis, 78 h
Protocol: Promastigote forms of the strain MHO were inoculated initially in the concentration of 5 × 10^5 parasites/mL in M199 medium (Life Technologie, Carlsbad, CA, USA), pH 7.4, supplemented with 10% of fetal bovine serum, (50 µg/mL) streptomycin, and (100 U) penicillin at 24 °C. Cells were grown until they reached the stationary phase. After this, 998 μL of the culture at 5.0 × 10^5 cells/mL was incubated with 2 μL of the inhibitors (50 to 0.0005 mM) dissolved in DMSO to obtain final concentrations of 100 to 0.001 μM. Amphotericin B was used as a control of the cell growth inhibition, in a concentration varying from 60 to 0.0006 μM dissolved in DMSO. […] After this inhibition period, the surviving cells were washed twice with HBSS (Gibco), centrifuged at 2000× g for 10 min, and supernatant was removed. To verify the parasite viability, over the pellet of cells about 1000 µL of M199 medium content was added, with 5 mg/mL of MTT (3-(4,5-dimethylthiazol-2-yl)-2, 5-diphenyltetrazolium bromide, a tetrazole) (Sigma-Aldrich, St. Louis, MO, USA). Surviving parasites were exposed to MTT during 12 h at 34 °C in a CO2 chamber. After this period, the cells were centrifuged for 10 min at 2000× g and the supernatant was removed. Formazan crystals that were formed in the cells were dissolved with DMSO, the absorbance was read using an Epoch 2 Microplate Spectrophotometer at 600 nm.

[7] = biological target: T1, Leishmania amazonensis recombinant arginase (L-ARG); parameters: method as in PMID 30216691; conditions: Table 2, unit inferred; read-out: IC50 inhibition of arginase, L. amazonensis; cited from earlier work
[8] = Table 2, unit inferred, read-out: IC50 inhibition of arginase, Bovine
[9] = 50 mM L-arginine, pH 9.5, 37 °C, 15 min, read-out: IC50 (half inhibitory activity), L-ARG
[10] = Table 2, unit inferred, read-out: IC50 inhibition of arginase, L. amazonensis
[11] = read-out: Emax (maximal inhibitory activity)

Compound	potency against L-ARG relative to human arginase ([2]; L-ARG IC50 vs human arginase IC50)	Selective Index [2]	IC50 [3, 9]	IC50 [3, 10]	Emax at 100 µM [3, 11]	Mode of Inhibition [5]	Ki [5]	IC50 [6]	Kis [5]	Emax [3, 11]	IC50 [1, 8]	mode of inhibition of bovine arginase [1]	IC50 [4]	IC50 [7]	IC50 ([1]; read-out: IC50, bovine arginase)
O=C(/C=C/c1ccc(O)c(O)c1)O[C@@H]1C[C@](O)(C(=O)O)C[C@@H](O)[C@H]1O [Chlorogenic acid, reference compound]		1.3									10.6 ± 1.6 µM				~10 µM
O=C(/C=C/c1ccc(O)c(O)c1)NCCc1ccc(O)c(O)c1 [Compound 11]		64	1.8 ± 0.1 µM	1.8 ± 0.1 µM	81 ± 2%	Uncompetitive			2.5 ± 0.2 µM		115 ± 1.3 µM				
O=C(/C=C/c1ccc(O)cc1)NCCc1ccc(O)c(O)c1 [Compound 13]		68	2.5 ± 0.2 µM	2.5 ± 0.2 µM	82 ± 1%	Competitive	1.6 ± 0.2 µM				170.4 ± 1.7 µM				
COc1cc(/C=C/C(=O)NCCc2ccc(O)c(O)c2)cc(OC)c1OC [Compound 14]		81	2.4 ± 0.9 µM	2.4 ± 0.9 µM	81 ± 2%	Competitive	1.2 ± 0.3 µM				193.6 ± 1.4 µM				
O=C(/C=C/c1ccccc1)NCCc1ccc(O)c(O)c1 [Compound 15]		30		1.3 ± 0.1 µM		Mixed	1.4 ± 0.2 µM		5 ± 1 µM	80 ± 1%	39.3 ± 1.4 µM				
O=C(NCCc1ccc(O)cc1)c1ccc(O)c(O)c1 [Compound 17]		10	17.8 µM and 18 µM	18 ± 3 µM	68 ± 2%	Competitive	11.4 ± 0.7 µM				175.3 ± 1.5 µM				

Further lines, with some results ahead:

potency against L-ARG relative to human arginase ([2]; L-ARG IC50 vs human arginase IC50)	Selective Index [2]	IC50 [3, 9]	IC50 [3, 10]	Emax at 100 µM [3, 11]	Mode of Inhibition [5]	Ki [5]	IC50 [6]	Kis [5]	Emax [3, 11]	Compound	IC50 [1, 8]	mode of inhibition of bovine arginase [1]	IC50 [4]	IC50 [7]	IC50 ([1]; read-out: IC50, bovine arginase)
9 fold	1	6.9 ± 0.7 µM	6.9 ± 0.7 µM	79 ± 1%	Competitive	3.9 ± 1 µM	82.6 µM			O=C(/C=C/c1ccc(O)c(O)c1)NCCc1ccccc1 [CAPA, caffeic acid phenethyl amide]	6.9 ± 1.3 µM	competitive inhibition	60.3 µM and 60 µM		
	58									O=C(O)/C=C/c1ccc(O)c(O)c1 [Caffeic acid, reference compound]	86.7 ± 8 µM			1.5 ± 0.3 µM	
	4	5.6 ± 0.4 µM	5.6 ± 0.4 µM	82 ± 2%	Competitive	4.4 ± 1.1 µM				O=C(/C=C/c1ccc(O)c(O)c1)NCCc1ccc(O)cc1 [Compound 6]	22.1 ± 1.6 µM				
	31	6.5 ± 1.4 µM	6.5 ± 1.4 µM	75 ± 2%	Noncompetitive	9.6 ± 0.7 µM		9.6 ± 0.7 µM		COc1cc(/C=C/C(=O)NCCc2ccc(O)c(O)c2)ccc1O [Compound 12]	198.7 ± 1.4 µM				
	10	4 ± 1 µM	4 ± 1 µM	89 ± 3%	Mixed	3.9 ± 0.4 µM		27 ± 8 µM		COC(=O)C(Cc1ccc(O)c(O)c1)NC(=O)/C=C/c1ccc(O)c(O)c1 (centres unmarked) [Compound 18]	41.9 ± 1.3 µM				
	4	9 ± 1 µM	9 ± 1 µM	90 ± 3%	Mixed	6.6 ± 0.3 µM		28 ± 4 µM		COC(=O)C(CS)NC(=O)/C=C/c1ccc(O)c(O)c1 (centres unmarked) [Compound 19]	37 ± 1.3 µM				
